assay: gradient 5% acetonitrile 3 min, to 50% in 2 min, to 85% in 15 min, held 3 min, 100 µL/min; conditions: column: Zorbax Extend-C18 2.1 x 50 mm; eluents: water / acetonitrile, 0.1% formic acid
How it was run: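 A Zorbax Extend-C18 column (2.1 × 50 mm, 1.8 μm) run at 100 μL/min with water and acetonitrile, both containing 0.1% formic acid, separated mixtures of ~100 pure standards. The HPLC was coupled to a quadrupole time-of-flight mass spectrometer operated in positive and negative ionization mode, with dead and dwell volumes of 40 μL and 900 μL. Each retention time was taken from a computationally picked adduct peak that was then manually inspected.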

Row | SMILES | RP-LC retention time [s]
1 | O=C1[C@H]2CN(Cc3ccc(F)c(Cl)c3)C[C@H]2C(=O)N1Cc1ccc2c(c1)OCO2 | 853
2 | CCCN1CC[C@@H]2c3cc(O)ccc3CC[C@@H]21 | 593
3 | O=C(c1ccc(Oc2ccccc2)cc1)N1CC(c2nc3ccccc3[nH]2)C1 | 623
4 | CN(Cc1nc2ccccc2n1Cc1ccccc1F)C(=O)c1ccco1 | 719
5 | O=C(c1cccs1)N1CCC2(CC1)NC(=O)N(Cc1ccccc1Cl)C2=O | 821
6 | Cc1nc(-c2ccc(-c3noc(COc4ccc(F)cc4)n3)cc2)cs1 | 1160
7 | Cc1c(C(=O)N2CCCCCC2)sc2ncn(CC(=O)N3CC(C)CC(C)C3)c(=O)c12 (configuration not stated) | 891
8 | CC(C)C(=O)n1nc(-c2ccccc2)nc1N | 888
9 | COc1ccccc1CNC(=O)C1=C2CCCN2c2ccccc2S1(=O)=O | 843
10 | Cc1cccc(-c2noc(C3CCCN3S(=O)(=O)c3ccc(Cl)cc3C)n2)c1 (configuration not stated) | 1300
11 | O=C(NCC1CCCO1)C(=O)NCC(c1cccs1)S(=O)(=O)c1ccc(F)cc1 (configuration not stated) | 749
12 | COc1ccc(Cl)cc1NC(=O)C1CCCN(c2nc3ccccc3nc2C(F)(F)F)C1 (configuration not stated) | 693
13 | Cc1nc(NS(=O)(=O)c2ccccc2)sc1C(=O)NCc1c(F)cccc1F | 718
14 | O=C(NC1CC1)C1CCN(S(=O)(=O)Cc2ccc(Cl)cc2)CC1 | 735
15 | C=CCNC(=O)C1CCCN(C(=O)Nc2ccc(NC(=O)Nc3ccc(C)c(C)c3)cc2)C1 (configuration not stated) | 766
16 | CCC(C)C(NC(=O)c1ccc(F)c(Cl)c1)C(=O)Nc1nc2ccccc2[nH]1 (configuration not stated) | 817
17 | Cc1ccc(CNC(=O)c2ccc3c(c2)CC(=O)N3C)cc1C | 765
18 | CCc1ccc(NC(=O)N2CCC(c3nc(C(=O)N(C)C)c(C)o3)CC2)cc1 | 769
19 | Cc1nc(CNC(=O)[C@H]2CCCN2S(=O)(=O)c2ccc(Br)cc2)cs1 | 794
20 | Cc1cc(N2C(=O)CCS2(=O)=O)cc(C)c1S(=O)(=O)N1CCC(C(N)=O)CC1 | 648
21 | O=C(NCCNc1cc(-n2cccn2)ncn1)c1c[nH]c2ccccc12 | 646
22 | Cc1ccc(-c2ccc(N3CCCC(C(=O)NCc4ccc5c(c4)OCO5)C3)nn2)cc1 (configuration not stated) | 732

Row | SMILES | RP-LC retention time [s]
23 | CN(CCNC(=O)CN1C(=O)CSc2cccn2-c2ccccc21)C1CCCCC1 | 670
24 | CC1CCN(S(=O)(=O)c2ccc3c(c2)CCCC(=O)N3CC(=O)Nc2ccccc2)CC1 | 958
25 | CC1CCC(NC(=O)C2CCCN(C(=O)c3cc(-c4ccccn4)n[nH]3)C2)CC1 (configuration not stated) | 636
26 | CCNC(=O)c1nnc(-c2ccc(S(=O)(=O)N3CCC(C)CC3)cc2)o1 | 875
27 | CCOCCCNC(=O)c1c(N)n(-c2ccc(C(C)=O)cc2)c2nc3ccccc3nc12 | 876
28 | CCOC(=O)C1CCCN(C(=O)Cn2c3ccccc3c3cnn(C)c(=O)c32)C1 (configuration not stated) | 826
29 | Cc1cccc2nnc(N3CCC(C(=O)N4CCOCC4)CC3)n12 | 568
30 | COc1ccc(-c2cn3c(CC(=O)Nc4ccc(F)c(F)c4)csc3n2)cc1OC | 774
31 | CNC(=O)C1=CCN(C(=O)NC2CCCC2)CC1 | 615
32 | COc1ccc(OC)c(NC(=O)c2ccc(-n3cnc(NC(=O)C4CC4)c3)cc2)c1 | 752
33 | CC(C)NC(=O)c1ccccc1OCC1CCN(C(=O)c2cc(F)cc(F)c2)CC1 | 927
34 | CC(C)Cn1cc(CCNC(=O)c2ccc(F)c(Cl)c2)c2cccnc21 | 909
35 | CCC(C(=O)NCC1CCCO1)n1c2ccccc2c2cnn(C)c(=O)c21 (configuration not stated) | 768
36 | CCOc1ccccc1CNC(=O)C1CCN(S(=O)(=O)c2cn(C(C)C)cn2)CC1 | 779
37 | COc1ccc(O)c(CNC2CCN(c3ccc(C(=O)NC4CC4)cn3)C2)c1 (configuration not stated) | 546
38 | CCOc1ccc(-c2[nH]ncc2CNS(=O)(=O)c2ccc(OC)c(Cl)c2)cc1 | 860
39 | CCCn1c(-c2cccc(C(=O)NC(C)c3ccccc3)c2)nc2cccnc21 (configuration not stated) | 824
40 | COCCNC(=O)c1c(C)oc2ccn(Cc3ccc(F)cc3)c(=O)c12 | 837
41 | COc1ccc(CN(C(=O)COc2ccc(Cl)cc2C)C2CCS(=O)(=O)C2)cc1OC (configuration not stated) | 938
42 | Cc1nc(-c2ccccc2)cc2nn(CC(=O)NCc3ccc(F)cc3F)c(=O)n12 | 902
43 | O=C(CCS(=O)(=O)c1ccccc1)NCc1ccsc1 | 671
44 | CCOC(=O)c1c(S(=O)(=O)N2CCC(C(=O)Nc3cccc(OC)c3)CC2)c(C)n(C)c1C | 834

Row | SMILES | RP-LC retention time [s]
45 | CN1c2cc(C(=O)NCc3ccncc3)ccc2C(=O)N2CCCCC21 (configuration not stated) | 586
46 | CCc1ccc(NC(=O)c2c(O)c3cccnc3n(-c3ccc(F)cc3)c2=O)cc1 | 1230
47 | O=c1ccc(-c2ccc(F)cc2)nn1CCc1nc(-c2cccc(Br)c2)no1 | 1100
48 | Cc1cc(C(=O)N2CCCCC2)c2c(=O)n(CC(=O)N(C)c3ccccc3)c(=O)n(C)c2n1 | 812
49 | Cc1c(Cl)cccc1NC(=O)Nc1cccc(-c2ccc(N3CCOCC3)nn2)c1 | 753
50 | O=C(NCc1cccnc1)c1cc(-c2ccc3c(c2)OCO3)nc2ccccc12 | 665
51 | NC(=O)C1CCN(C(=O)c2c[nH]c3c(C(F)(F)F)cccc3c2=O)CC1 | 572
52 | O=C(Cn1cnc2c(-c3ccc(F)cc3)csc2c1=O)NC1CCCC1 | 854
53 | Cc1cc(-c2nnc(-c3ccco3)o2)c(C)n1CC(=O)Nc1cccc(Cl)c1 | 920
54 | CC1(C(=O)NC2CCCC2)Cn2cnc(C(=O)NCc3cccc(F)c3)c2C(=O)N1C1CC1 (configuration not stated) | 753
55 | Cc1ccc(NC(=O)N2CCC(N3CCN(Cc4ccccc4)C(=O)C3=O)CC2)cc1Cl | 809
56 | Cc1nn(CC(=O)N2CCCCCC2)c(=O)c2c(-n3cccc3)n(-c3ccc(Cl)cc3)nc12 | 1090
57 | O=C1CCN(C(=O)C2COc3ccccc3O2)CCOCCN1 (configuration not stated) | 634
58 | CC(C)NC(=O)Cn1c2ccccc2c2ncn(Cc3nc(-c4ccccc4)no3)c(=O)c21 | 848
59 | Cc1noc(C)c1-c1ccc(S(=O)(=O)NCCc2ccccc2)cc1 | 957
60 | CCC(C)NC(=O)N1CCCN(C2=NS(=O)(=O)C(c3ccc(C)c(C)c3)=C2C)CC1 (configuration not stated) | 843
61 | CN(CC1(C)CCOCC1)S(=O)(=O)c1cc(F)ccc1F | 614
62 | CCC(C)NC(=O)c1ccc(-c2ccc(N3CCSCC3)nc2)cc1 (configuration not stated) | 711
63 | O=C(Nc1nc(-c2ccc(F)cc2F)cs1)c1ccccc1F | 1130
64 | COc1ccc(C(=O)N2CCc3ccc(CNC(=O)NCC4CCCO4)cc32)cc1 (configuration not stated) | 712
65 | CC(C)C(NC(=O)c1ccco1)C(=O)N1CCC(c2noc(-c3ccccc3)n2)CC1 (configuration not stated) | 920
66 | COc1ccc(Cl)cc1NC(=O)C1CCN(S(C)(=O)=O)c2ccccc2O1 (configuration not stated) | 1030

Row | SMILES | RP-LC retention time [s]
67 | CC1Oc2ccc(-c3csc(NC(=O)c4ccccc4)n3)cc2NC1=O (configuration not stated) | 862
68 | Cc1cc(F)ccc1NS(=O)(=O)c1cn(CC(C)C)c2ncccc12 | 986
69 | COc1ccc(OC)c(S(=O)(=O)N2CCc3c(c(-c4nnc(-c5ccc(F)cc5)o4)nn3C)C2)c1 | 900
70 | CCOc1ccccc1NC(=O)N1CCC2(CC1)NC(=O)c1ccc(Cl)cc1N2 | 834
71 | CCc1noc2nc(C)n(CC(=O)NCCc3ccccc3)c(=O)c12 | 800
72 | CN1CCn2cc(S(=O)(=O)N3CCN(c4ccccc4)CC3)cc2C1=O | 764
73 | O=C(Cn1cnc2c(sc3nc(-c4ccccc4)ccc32)c1=O)Nc1ccc(F)cc1Cl | 1050
74 | COCC(=O)N(CC(=O)N1CCc2sccc2C1COc1ccc(Cl)cc1)C(C)C (configuration not stated) | 909
75 | COc1cc(OC)c(NC(=O)C(C)Oc2ccc(=O)n(-c3ccc(F)cc3)n2)cc1Cl (configuration not stated) | 844
76 | CCCC(=O)OCC1OC(n2ccc(N)nc2=O)C(OC(=O)CCC)C1OC(=O)CCC (configuration not stated) | 738
77 | COC(=O)c1ccc2c(=O)n(-c3ccc(Cl)cc3)c(N3CCSC3)nc2c1 | 1110
78 | Cc1csc(-c2ccc(N3CCN(C(=O)Cc4cccc(Cl)c4)CC3)nc2)n1 | 896
79 | CCc1ccccc1NS(=O)(=O)c1cc2n(c1)CCN(CC)C2=O | 771
80 | COc1ccc(N2CC(c3nc(-c4cc(OC)c(OC)c(OC)c4)no3)CC2=O)cc1 (configuration not stated) | 743
81 | Cc1csc(NC(=O)c2cc(Sc3nncn3C)ccc2N)n1 | 700
82 | CC(C)(C)c1cc(NCc2ccccn2)n2ncc(-c3ccccc3)c2n1 | 1230
83 | O=C(Cn1cccn1)N1CC(c2nc(-c3cccs3)no2)C1 | 644
84 | COC(=O)c1ccc(C(=O)N(Cc2ccccn2)Cc2ccco2)cc1 | 650
85 | Cc1ccc(-c2cn3c(CC(=O)NCCc4ccccc4)csc3n2)cc1C | 928
86 | COc1ccc(-c2nnc(-c3cc(S(=O)(=O)N4CCOCC4)ccc3Cl)o2)cc1 | 950
87 | C=CCNC(=O)c1snc(C(=O)NC(C)C)c1N | 749

From the METLIN SMRT retention time set (Domingo-Almenara et al. 2019)
